Experimental data reported in ChEMBL document CHEMBL1201862, “PubChem BioAssay data set” (2004).
Calls of active or inactive are those of the source.

Experiments:
[1] = molecular target: T1, Endoribonuclease toxin MazF (Escherichia coli K-12, UniProt P0AE70); experiment: activation of MazEF endoribonuclease cleavage – biochemical, fluorescence, single-stranded RNA substrate, uHTS hits, dose response (AID 588481); type: functional
T1 sequence (P0AE70 whole entry): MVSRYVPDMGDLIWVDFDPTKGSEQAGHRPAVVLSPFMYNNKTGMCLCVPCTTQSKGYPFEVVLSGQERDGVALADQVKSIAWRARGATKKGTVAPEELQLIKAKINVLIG

[2] = molecular target: T1, Endoribonuclease toxin MazF; experiment: substrate-only fluorescence increase artefacts – biochemical, single-stranded RNase substrate, counter-screen for MazEF activator project, dose response (AID 588502); type: functional
[3] = molecular target: T2, Calpain-2 catalytic subunit (Sus scrofa, UniProt P43367); experiment: m-calpain protease blockers, concentration series – biochemical, fluorogenic peptide substrate, dose response (AID 1420); type: functional
T2 sequence (P43367 whole entry): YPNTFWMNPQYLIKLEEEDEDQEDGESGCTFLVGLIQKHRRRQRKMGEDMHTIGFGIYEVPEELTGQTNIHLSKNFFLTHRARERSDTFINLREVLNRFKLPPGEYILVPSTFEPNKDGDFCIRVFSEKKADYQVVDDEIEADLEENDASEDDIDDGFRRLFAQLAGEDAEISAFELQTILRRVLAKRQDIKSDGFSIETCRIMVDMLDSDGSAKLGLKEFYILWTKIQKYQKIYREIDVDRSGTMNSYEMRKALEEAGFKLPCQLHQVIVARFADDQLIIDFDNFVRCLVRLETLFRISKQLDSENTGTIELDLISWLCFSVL

[4] = off-target signal loss in HeLa-CEM21 co-culture – HeLa F-luc CTL cells, cherry-picked, counter-screen for HIV-1 Env fusion inhibitor project, dose response (AID 652040); type: functional, cell-based;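 further: potency for signal decrease marking cytotoxic or nonspecific inhibition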
[5] = molecular target: T3, RNA-binding protein pos-1 (Caenorhabditis elegans, UniProt G5EF15); experiment: disruptors of C. elegans POS-1 RNA interaction – biochemical, fluorescence polarization, dose response (AID 1964);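 further: purified POS-1 fused to maltose binding protein made in E. coli; potency of compounds blocking POS-1 binding to fluorescent RNA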
T3 sequence (G5EF15 whole entry): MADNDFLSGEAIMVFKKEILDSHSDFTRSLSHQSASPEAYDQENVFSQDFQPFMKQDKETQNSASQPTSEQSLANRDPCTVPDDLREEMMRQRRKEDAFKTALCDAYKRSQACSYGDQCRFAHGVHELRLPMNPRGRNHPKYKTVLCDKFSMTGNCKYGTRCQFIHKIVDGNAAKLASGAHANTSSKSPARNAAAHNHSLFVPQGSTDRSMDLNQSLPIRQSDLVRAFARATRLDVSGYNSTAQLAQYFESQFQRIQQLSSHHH

[6] = molecular target: T4, Zinc finger protein mex-5 (Caenorhabditis elegans, UniProt Q9XUB2); experiment: potency of MEX-5 RNA-binding blockers – biochemical, C. elegans, fluorescence polarization, dose response (AID 1960)
T4 sequence (Q9XUB2 whole entry): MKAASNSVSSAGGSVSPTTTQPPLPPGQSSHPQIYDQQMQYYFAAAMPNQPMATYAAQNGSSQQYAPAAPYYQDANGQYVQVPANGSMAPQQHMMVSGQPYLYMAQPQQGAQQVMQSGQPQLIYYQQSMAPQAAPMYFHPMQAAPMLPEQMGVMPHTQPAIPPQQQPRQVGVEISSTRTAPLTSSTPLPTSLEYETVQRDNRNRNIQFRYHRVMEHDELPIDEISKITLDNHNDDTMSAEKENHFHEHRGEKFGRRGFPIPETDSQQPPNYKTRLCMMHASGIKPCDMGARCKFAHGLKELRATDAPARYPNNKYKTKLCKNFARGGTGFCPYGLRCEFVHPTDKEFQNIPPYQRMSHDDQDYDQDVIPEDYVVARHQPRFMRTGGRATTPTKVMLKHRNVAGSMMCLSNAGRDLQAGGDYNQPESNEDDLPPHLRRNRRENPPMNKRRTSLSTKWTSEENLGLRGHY

[7] = blockers of bursicon-stimulated LGR2 cAMP reporter – cell-based, HEK293, CRE-luciferase reporter, cherry pick, set 2, dose response (AID 743343); type: functional;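 further: transfected cells were stimulated with diluted bursicon conditioned medium after compound addition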
[8] = toxicity toward HepG2 liver cells – cell-based, plate reader, cherry-pick, antagonist series, cytotoxicity control, dose response (AID 743416); type: functional
[9] = A549 cell cytotoxicity, dose response, cytotoxicity control, plate reader, cherry-pick, antagonist series (AID 743412); type: functional, cell-based
[10] = blockade of melanocortin 4 receptor signaling – cell-based, plate reader, cherry pick, counter-screen for LGR2 antagonist project, dose response (AID 743444); type: functional;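 further: transfected HEK 293 cells stimulated with alpha-MSH peptide; potency of inhibitors of the alpha-MSH evoked signal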
Protein RecA = molecular target: T5, Protein RecA (Mycobacterium tuberculosis, UniProt P9WHJ3); experiment: Fluorescence Cell-Free Homogeneous Dose Retest to Identify Inhibitors of RecA-Intein Splicing Activity. [Related pubchem assays (depositor defined):AID2097, AID2223, AID489010, AID492950]; type: functional
T5 sequence (P9WHJ3 whole entry): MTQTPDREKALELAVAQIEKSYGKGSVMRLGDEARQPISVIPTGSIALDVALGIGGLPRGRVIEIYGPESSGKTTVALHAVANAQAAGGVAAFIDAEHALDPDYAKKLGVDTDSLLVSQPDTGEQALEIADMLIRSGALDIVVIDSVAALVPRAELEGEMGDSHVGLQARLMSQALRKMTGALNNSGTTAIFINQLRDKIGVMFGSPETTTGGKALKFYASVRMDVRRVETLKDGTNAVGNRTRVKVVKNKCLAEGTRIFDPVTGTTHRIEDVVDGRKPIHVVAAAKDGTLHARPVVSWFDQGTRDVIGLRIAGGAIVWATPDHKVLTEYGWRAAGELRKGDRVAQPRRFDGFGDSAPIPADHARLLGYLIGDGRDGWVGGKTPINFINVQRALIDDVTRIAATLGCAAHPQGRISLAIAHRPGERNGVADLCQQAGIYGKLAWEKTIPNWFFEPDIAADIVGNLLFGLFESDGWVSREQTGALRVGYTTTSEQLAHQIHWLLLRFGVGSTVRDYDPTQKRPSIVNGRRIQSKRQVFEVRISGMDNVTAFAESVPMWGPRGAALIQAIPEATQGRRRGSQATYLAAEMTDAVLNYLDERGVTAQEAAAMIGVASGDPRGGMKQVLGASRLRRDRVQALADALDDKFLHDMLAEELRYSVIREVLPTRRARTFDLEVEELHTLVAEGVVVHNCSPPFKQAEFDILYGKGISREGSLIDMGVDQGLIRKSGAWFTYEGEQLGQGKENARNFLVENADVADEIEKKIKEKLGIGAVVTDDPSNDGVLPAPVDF

[11] = molecular target: T6, Replicative DNA helicase DnaB (Mycobacterium tuberculosis, UniProt P9WMR3); experiment: DnaB intein splicing inhibitors, dose response, biochemical, cell-free fluorescence (AID 449749); type: functional
T6 sequence (P9WMR3 whole entry): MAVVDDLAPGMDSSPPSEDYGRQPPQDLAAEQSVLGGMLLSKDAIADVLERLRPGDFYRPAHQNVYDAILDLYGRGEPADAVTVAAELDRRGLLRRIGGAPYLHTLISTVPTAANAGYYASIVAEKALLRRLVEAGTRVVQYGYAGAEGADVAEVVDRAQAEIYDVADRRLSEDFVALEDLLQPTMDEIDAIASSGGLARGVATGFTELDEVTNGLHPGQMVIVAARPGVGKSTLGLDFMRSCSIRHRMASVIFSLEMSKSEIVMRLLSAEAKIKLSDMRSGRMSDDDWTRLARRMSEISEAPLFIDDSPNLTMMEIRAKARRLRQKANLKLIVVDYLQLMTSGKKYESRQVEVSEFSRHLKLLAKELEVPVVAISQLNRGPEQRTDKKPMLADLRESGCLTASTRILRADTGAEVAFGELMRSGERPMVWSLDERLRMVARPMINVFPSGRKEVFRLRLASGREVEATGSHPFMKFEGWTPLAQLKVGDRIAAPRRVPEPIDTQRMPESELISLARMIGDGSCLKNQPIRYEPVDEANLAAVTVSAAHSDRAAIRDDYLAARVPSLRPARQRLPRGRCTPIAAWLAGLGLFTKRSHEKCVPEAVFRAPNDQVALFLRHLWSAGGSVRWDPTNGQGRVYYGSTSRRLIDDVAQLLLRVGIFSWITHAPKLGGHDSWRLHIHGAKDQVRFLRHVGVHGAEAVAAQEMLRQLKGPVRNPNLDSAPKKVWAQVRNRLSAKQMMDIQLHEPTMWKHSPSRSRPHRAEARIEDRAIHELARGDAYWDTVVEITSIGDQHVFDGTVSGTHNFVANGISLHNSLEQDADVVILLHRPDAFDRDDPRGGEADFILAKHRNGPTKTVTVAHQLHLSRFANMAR

[12] = P. falciparum Dd2 growth inhibitors, dose response, SYBR Green, cherry-picked samples (AID 1159567); type: functional, cell-based

Question: Which EC50 [1] does the source give for `Cc1ccc(-c2cc(-c3ccccc3)nc(N)c2C#N)o1` here?
Answer: The EC50 was > 99 µM (inactive).

Question: What about the EC50 [2] of the same compound?
Answer: The EC50 was 44.6 µM (inactive).

Question: For `COC(=O)CC(NS(=O)(=O)c1cccs1)c1cccc2ccccc12` (stereo not drawn), which IC50 [3] is on record?
Answer: The IC50 was > 50 µM (not active).

Question: For `COc1ccc(-c2c(C)nn3c(C(F)(F)F)cc(C)nc23)cc1`, which AC50 [4] is on record?
Answer: Its AC50 is 17.8 µM (active).

Question: With `CSc1nnc(N2C(=O)C(O)=C(C(=O)c3ccc(C)o3)C2c2ccc(C)cc2)s1` (stereo not drawn) as the compound, how does the EC50 [1] read?
Answer: Its EC50 is 9.87 µM (active).

Question: What about the EC50 [2] of the same compound?
Answer: Its EC50 is > 99 µM (inactive).

Question: Which EC50 [1] does the source give for `CC1CC(=O)C2=C(C1)OC(N)=C(C#N)C2c1coc2ccccc2c1=O` (stereo not drawn) here?
Answer: Its EC50 is > 99 µM (inactive).

Question: What about the EC50 [2] of the same compound?
Answer: The EC50 was > 99 µM (inactive).

Question: Which EC50 [1] does the source give for `O=C(Nc1ccccc1)c1nn(-c2ccccc2)c(=O)cc1C(F)(F)F` here?
Answer: The EC50 was > 99 µM (inactive).

Question: And the EC50 [5]?
Answer: Its EC50 is > 300 µM (not active).

Question: And the EC50 [2]?
Answer: Its EC50 is > 99 µM (inactive).

Question: And the EC50 [6]?
Answer: The EC50 was > 300 µM (not active).

Question: Which EC50 [1] does the source give for `Cc1nc(SCC(=O)Nc2cc(C)on2)c2c3c(sc2n1)CCCC3` here?
Answer: The EC50 was > 99 µM (inactive).

Question: What about the EC50 [2] of the same compound?
Answer: The EC50 was > 99 µM (inactive).

Question: For `CCCNC(=O)Nc1ccc2c(c1)C(=O)N(C)C[C@H](OC)[C@H](C)CN(Cc1ccc(-c3ccccn3)cc1)[C@@H](C)CO2`, which AC50 [7] is on record?
Answer: The AC50 was 50.8 µM (active).

Question: And the AC50 [8]?
Answer: Its AC50 is 44 µM (active).

Question: And the AC50 [9]?
Answer: The AC50 was 26.4 µM (active).

Question: And the AC50 [10]?
Answer: The AC50 was 55.8 µM (active).

Question: Which results are given for `CCOc1ccccc1Nc1nnc(Cc2ccccc2Cl)c(O)n1`?
Answer: EC50 (Protein RecA): 21 µM (active); IC50 [3]: > 50 µM (not active); AC50 [11]: > 380 µM (inactive)

Question: Which IC50 [3] does the source give for `CCN(CC)S(=O)(=O)c1ccc2oc(C(=O)NCc3ccc(C)cc3)c(C)c2c1` here?
Answer: The IC50 was 26.3 µM (not active).

Question: For `Cc1ccccc1S(=O)(=O)N1[C@H](C#N)[C@@H](c2ccc(C#CC3CC3)cc2)[C@@H]1CO`, which AC50 [12] is on record?
Answer: The AC50 was 4.69 µM (active).
